Assay results reported in US20250120989A1, “BRIDGED TRICYCLIC CARBAMOYLPYRIDONE COMPOUNDS AND USES THEREOF” (priority 2023, published 2025).
Converted amounts (≈) assume the structure as drawn.

How the values were obtained:
HIV-1 (IIIB) = experiment: microbe, parasite or virus in culture; format: cell-based; settings: Human immunodeficiency virus 1, MT4, 120 h; HIV-1 (IIIB) replication in MT-4 cells, 5 days, Cell Titer Glo; read-out: MT4 EC50
in vitro = settings: human, uninfected MT-4 cells
physchem = settings: FaSSIF, 23 °C, thermodynamic from solid

Compound	EC50 (HIV-1 (IIIB))	CC50 at 5 days (in vitro)	solubility thermodynamic at 24 h (physchem)
CC1=NO[C@@]2(CC[C@H](C)N3C[C@H]2n2cc(C(=O)NCc4ccc(F)cc4F)c(=O)c(OCOC(=O)OCC(C)(C)N(C)C(=O)OCOP(=O)(O)O)c2C3=O)C1 [Compound 36, (phosphonooxy)methyl (1-((((((3′S,5S,7′R)-10′-((2,4-difluorobenzyl)carbamoyl)-3,3′-dimethyl-1′,11′-dioxo-1′,4′,5′,11′-tetrahydro-3′H,4H,7′H-spiro[isoxazole-5,6′-[2,7]methanopyrido[1,2-a][1,4]diazonin]-12′-yl)oxy)methoxy)carbonyl)oxy)-2-methylpropan-2-yl)(methyl)carbamate]	0.00122 µM	9.33 µM	5060 µg/mL (≈ 6.32 mM)
CC1=NO[C@@]2(CC[C@H](C)N3C[C@H]2n2cc(C(=O)NCc4ccc(F)cc4F)c(=O)c(OCOC(=O)OC(C)(C)COP(=O)(O)O)c2C3=O)C1 [Compound 62, (((3′S,5S,7′R)-10′-((2,4-difluorobenzyl)carbamoyl)-3,3′-dimethyl-1′,11′-dioxo-1′,4′,5′,11′-tetrahydro-3′H,4H,7′H-spiro[isoxazole-5,6′-[2,7]methanopyrido[1,2-a][1,4]diazonin]-12′-yl)oxy)methyl (2-methyl-1-(phosphonooxy)propan-2-yl) carbonate]	0.00258 µM	28.1 µM	5040 µg/mL (≈ 7.08 mM)
CC[C@@H](COC(=O)OCOc1c2n(cc(C(=O)NCc3ccc(F)cc3F)c1=O)[C@@H]1CN(C2=O)[C@@H](C)CC[C@]12CC(OC)=NO2)OP(=O)(O)O [Compound 67, (((3′S,5S,7′R)-10′-((2,4-difluorobenzyl)carbamoyl)-3-methoxy-3′-methyl-1′,11′-dioxo-1′,4′,5′,11′-tetrahydro-3′H,4H,7′H-spiro[isoxazole-5,6′-[2,7]methanopyrido[1,2-a][1,4]diazonin]-12′-yl)oxy)methyl ((S)-2-(phosphonooxy)butyl) carbonate]	0.00241 µM	14.4 µM	5180 µg/mL (≈ 7.12 mM)
COC1=NO[C@@]2(CC[C@H](C)N3C[C@H]2n2cc(C(=O)NCc4ccc(F)cc4F)c(=O)c(OCOC(=O)OC[C@H](C)COP(=O)(O)O)c2C3=O)C1 [Compound 68, (((3′S,5S,7′R)-10′-((2,4-difluorobenzyl)carbamoyl)-3-methoxy-3′-methyl-1′,11′-dioxo-1′,4′,5′,11′-tetrahydro-3′H,4H,7′H-spiro[isoxazole-5,6′-[2,7]methanopyrido[1,2-a][1,4]diazonin]-12′-yl)oxy)methyl ((S)-2-methyl-3-(phosphonooxy)propyl) carbonate]	0.00211 µM	16.1 µM	4620 µg/mL (≈ 6.35 mM)
COC1=NO[C@@]2(CC[C@H](C)N3C[C@H]2n2cc(C(=O)NCc4ccc(F)cc4F)c(=O)c(OCOC(=O)O[C@H](C)COP(=O)(O)O)c2C3=O)C1 [Compound 54, (((3′S,5S,7′R)-10′-((2,4-difluorobenzyl)carbamoyl)-3-methoxy-3′-methyl-1′,11′-dioxo-1′,4′,5′,11′-tetrahydro-3′H,4H,7′H-spiro[isoxazole-5,6′-[2,7]methanopyrido[1,2-a][1,4]diazonin]-12′-yl)oxy)methyl ((R)-1-(phosphonooxy)propan-2-yl) carbonate]	0.00432 µM	15.5 µM	4660 µg/mL (≈ 6.51 mM)
CC1=NO[C@@]2(CC[C@H](C)N3C[C@H]2n2cc(C(=O)NCc4ccc(F)cc4F)c(=O)c(OCOC(=O)OC[C@H](C)COP(=O)(O)O)c2C3=O)C1 [Compound 69, (((3′S,5S,7′R)-10′-((2,4-difluorobenzyl)carbamoyl)-3,3′-dimethyl-1′,11′-dioxo-1′,4′,5′,11′-tetrahydro-3′H,4H,7′H-spiro[isoxazole-5,6′-[2,7]methanopyrido[1,2-a][1,4]diazonin]-12′-yl)oxy)methyl ((S)-2-methyl-3-(phosphonooxy)propyl) carbonate]	0.0029 µM	17.3 µM	4600 µg/mL (≈ 6.46 mM)
